According to patent US20250361217A1, “FATTY ACID COMPOUNDS” (University of Pittsburgh - Of the Commonwealth System of …, priority 2022, published 2025):

Key:
[1] = Energy expenditure and respiratory exchange ratio (FIG. 6D); type: in vivo; conditions: mice after treatment
[2] = test system: liver gene expression; assay: RNA-Sequencing of livers with IPA pathway analysis; type: in vivo, mice
Method: Bioinformatics and Biostatistics Analyses on RNA Sequencing Data Transcriptome sequencing was performed on mice samples from each group with four replicates per condition. Quality control was first performed on the raw sequencing data by tool FastQC. Then low-quality reads and adapter sequences were trimmed out by tool Trimmomatic. After pre-processing, the surviving reads were aligned into mouse reference genome mm10 by STAR aligner. Gene counts per gene per sample were quantified by function—quantMode GeneCounts supported by the STAR aligner. Gene expression normalization was performed by R package DEseq2.
Given the gene expression profile, differential expression analyses were performed based on gene counts by DEseq2 package. Five pairwise comparisons were analyzed: LFD+Veh vs LFD+11D3, HFD+Veh vs HFD+11D3, HFD+Veh vs HFD+11U3, HFD+Veh vs HFD+11U3-2M and LFD+Veh vs HFD+Veh. Differentially expressed genes (DEGs) were defined by FDR=5% and absolute fold-change equal to or greater than 1.5. For the downstream analysis, Ingenuity Pathways Analysis (IPA) was employed to perform pathway enrichment analysis on the DEGs. Significant pathways were defined by FDR=5%. Regulation directions were measured by Z-scores, where a positive Z-score indicates activation of the pathway and a negative Z-score means inhibition, while some pathways show out unknown or mix of regulation directions.

[3] = FuFA-CoA detection in liver by mass spectrometry; type: in vivo; conditions: livers of FuFA-treated HFD mice
Method: Liver powder (50 mg) was used and dissolved in plastic Eppendorf with […] of milli-Q purified water and vortexed well. Then, 200 μl of ACN containing 400 nM n-Heptadecanoyl coenzyme A lithium salt as internal standard (C17-CoA standard, NuCheck) was added, vortexed thoroughly, and centrifuged for 4 min at 10000 g at 4° C. For protein precipitation, the supernatant was transferred to a new tube and 20 μl was diluted with 180 μl of ACN/water (4:1 ratio) in clean mass spectrometry vials for analysis of CoA's.
FuFA-CoA in liver and primary hepatocytes were detected with an API 5000™ mass spectrometer after chromatographic separation using a 150×2 mm Luna® 5 μm C8 100 C8 Å LC column (OOF-4040-BO) with 5% solvent B (ACN, 0.1% ammonium) at a flow rate of 0.35 ml/min using a system solvent started in 5% solvent B (ACN, 0.1% ammonium hydroxide) and 95% of solvent A(water+0.1% ammonium hydroxide) for 30 seconds, followed by an increase from 5-65% gradient of solvent B over 6 min, followed by re equilibrate condition. Quantitation of analyte and internal standard peak areas was determined using the Quantitation Wizard in Sciex's Analyst® Software.

[4] = test system: HFD model in C57BL/6J mice; assay: HPLC-MS analysis of plasma cholesterol, cholesterol-ester and triglycerides in HFD mice; type: in vivo; conditions: 50 mg/kg
From the text: Male C57BL/6J mice were purchased from Jackson Laboratory (Bar Harbor, ME, USA). Mice were acclimated for a week before being randomized to receive either a low-fat diet (LFD) or a high-fat diet (HFD) purchased from Research Diets (New Brunswick, NJ, USA). Obesity was induced by the HFD (D12492, with 60% of the adjusted calories derived from fat) for 16 weeks beginning at age of 8 weeks. Age-matched controls were maintained on a LFD (D12450J, matching the sucrose level of D12492). While maintaining the diet, mice under HFD were divided into 4 groups (n=8 per group) and were treated every 2 days by oral gavage for 7 weeks with 100 μl of 11D3 (50 mg/kg), 11U3 (50 mg/kg), or 11U3-2M (50 mg/kg) formulated in a solution of 2:1 of polyethylene glycol (Fisher Scientific, PEG400 #p167-1) and saline, containing 1.5% of octanoic acid (TCI, #00027). Control groups received 100 μl of PEG400/saline/octanoic acid as the vehicle (Veh). LFD mice were divided into 2 groups (n=8 per group) and treated with veh or 11D3 (50 mg/kg) to detect any effect of natural FuFA in LFD. Mice were grouped to start at the same weight mean before starting the treatment. During and before gavage treatment, mice were fed ad libitum and given free access to water. Food intake, water consumption, and mouse weight were monitored every week. At 20 weeks (4 weeks of treatment), a glucose tolerance test (GTT) was performed on all cohorts. After 2 weeks of recovery (22 weeks), a whole-body composition was performed using EchoMRI™-100H. At the end of the 23 weeks study, mice were euthanized with isoflurane followed by laparotomy. The blood was collected, and mice were perfused using 0.9% NaCl. Organs were harvested and snap-frozen in liquid nitrogen gas and stored at −80° C. for further analysis. […]
Plasma TG were analyzed by HPLC-HR-MS/MS using a C8 Luna column (2×150 mm, 5 μm, Phenomenex) with a flow rate of […] and mobile phases of acetonitrile/water (9:1, v/v) 0.1% ammonium acetate (solvent A) and isopropanol/acetonitrile 0.1% ammonium acetate (7:3, v/v) (solvent B). […]

FuFA-CoA conjugate in liver (ratio to C17:0-CoA) [3]: significantly elevated
Compound: CCCc1ccc(CCCCCCCCCC(C)(C)C(=O)O)o1 [11U3-2M, 2,2-Dimethyl-11-(5-propylfuran-2-yl)undecanoic acid]
energy expenditure [1]: no change
respiratory exchange ratio [1]: no change
activated pathways (Ingenuity Pathway Analysis) ([2]; liver RNA-Seq DEGs vs HFD+veh): FA β-oxidation was the most activated pathway
LncRNA GM10804 downregulated ([2]; liver RNA-Seq vs HFD+veh): 5 fold
LncRNA GM15441 increased ([2]; liver RNA-Seq vs HFD+veh): 137 fold
increase in PDK4 gene ([2]; liver RNA-Seq vs HFD+veh): 7 fold
plasma TC compared to HFD+veh [4]: reduction
plasma TG reduced vs HFD+veh [4]: 16%
plasma total cholesterol-ester (TCE) reduced vs HFD+veh [4]: 33%
